These results are taken from patent US20240190880A1 (THE REGENTS OF THE UNIVERSITY OF MICHIGAN, priority 2021, published 2024).

Each structure is given as a SMILES string.

The first assay has as its target T1, ER (Homo sapiens, UniProt P03372).
T1 construct: host or cells: T47D and MCF7 human breast cancer cells
T1 sequence (P03372 1-595): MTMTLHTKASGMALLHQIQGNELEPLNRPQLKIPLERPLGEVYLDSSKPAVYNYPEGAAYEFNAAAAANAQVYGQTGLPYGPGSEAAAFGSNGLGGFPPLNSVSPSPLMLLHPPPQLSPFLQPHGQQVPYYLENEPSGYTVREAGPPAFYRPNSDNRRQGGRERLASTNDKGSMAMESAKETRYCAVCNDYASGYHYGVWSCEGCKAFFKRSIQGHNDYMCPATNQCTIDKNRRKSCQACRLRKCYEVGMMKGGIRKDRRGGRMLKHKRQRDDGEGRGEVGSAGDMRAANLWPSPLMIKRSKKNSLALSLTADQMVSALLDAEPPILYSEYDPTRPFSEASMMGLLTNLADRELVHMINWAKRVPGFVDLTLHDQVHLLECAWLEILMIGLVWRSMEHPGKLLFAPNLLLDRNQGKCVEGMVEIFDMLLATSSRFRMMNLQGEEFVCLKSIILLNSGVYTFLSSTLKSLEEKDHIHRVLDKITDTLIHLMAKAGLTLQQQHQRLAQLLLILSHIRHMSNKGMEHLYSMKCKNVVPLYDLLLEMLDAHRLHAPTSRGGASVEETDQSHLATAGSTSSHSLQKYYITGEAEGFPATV
Kind of assay: ER degradation activity, in-cell western blot analysis in T47D cells. Type of assay: cell-based. The note with it: 16 hours, Table A does not say which cell line (T47D or MCF7), read-out: Potency (DC50). The essentials: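 Human T47D cells (DMEM, 10% FBS) are dosed for 16 h with 0.5% DMSO final and probed with 680- and 800-dye secondary antibodies. Relative ER is calculated against vehicle and untreated wells.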
In the case of `C[C@@H]1Cc2c([nH]c3ccccc23)[C@H](c2c(F)cc(CN3CCC4(CCC(CN5Cc6cc7c(cc6C5)C(=O)N(C5CCC(=O)NC5=O)C7=O)CC4)CC3)cc2F)N1CC(F)F` (stereo partly drawn) [E 381, 6-((3-(4-((1S,3R)-2-(2,2-difluoroethyl)-3-methyl-2,3,4,9-tetrahydro-1H-pyrido[3,4-b]indol-1-yl)-3,5-difluorobenzyl)-3-azaspiro[5.5]undecan-9-yl)methyl)-2-(2,6-dioxopiperidin-3-yl)-6,7-dihydropyrrolo[3,4-f]isoindole-1,3(2H,5H)-dione], the DC50 was above 100 nM.

For the compound `C[C@@H]1Cc2cc(O)ccc2[C@@H](c2c(F)cc(N3CCC(N4CCC(C(=O)N5Cc6cc7c(cc6C5)C(=O)N(C5CCC(=O)NC5=O)C7)CC4)CC3)cc2F)N1CC(C)(F)F` (stereo partly drawn) [E 30, 3-(6-(1′-(4-((1S,3R)-2-(2,2-difluoropropyl)-6-hydroxy-3-methyl-1,2,3,4-tetrahydroisoquinolin-1-yl)-3,5-difluorophenyl)-[1,4′-bipiperidine]-4-carbonyl)-1-oxo-3,5,6,7-tetrahydropyrrolo[3,4-f]isoindol-2(1H)-yl)piperidine-2,6-dione], the DC50 was above 100 nM.

As for `O=C1CCC(N2C(=O)c3cc4c(cc3C2=O)CN(CC2CCC(NC3CN(c5ccc([C@@H]6c7ccc(O)cc7CC[C@@H]6c6ccccc6)cc5)C3)CC2)C4)C(=O)N1` (stereo partly drawn) [E 337, 2-(2,6-dioxopiperidin-3-yl)-6-((4-((1-(4-((1R,2S)-6-hydroxy-2-phenyl-1,2,3,4-tetrahydronaphthalen-1-yl)phenyl)azetidin-3-yl)amino)cyclohexyl)methyl)-6,7-dihydropyrrolo[3,4-f]isoindole-1,3(2H,5H)-dione], the half-maximal degradation concentration (DC50) was above 100 nM.

With `C[C@@H]1Cc2c([nH]c3ccccc23)[C@@H](c2cnc(N3CCC4(CCN(C(=O)CN5Cc6cc7c(cc6C5)C(=O)N(C5CCC(=O)NC5=O)C7=O)CC4)CC3)nc2)N1CC(F)(F)F` (stereo partly drawn) [E 254, 2-(2,6-dioxopiperidin-3-yl)-6-(2-(9-(5-((1R,3R)-3-methyl-2-(2,2,2-trifluoroethyl)-2,3,4,9-tetrahydro-1H-pyrido[3,4-b]indol-1-yl)pyrimidin-2-yl)-3,9-diazaspiro[5.5]undecan-3-yl)-2-oxoethyl)-6,7-dihydropyrrolo[3,4-f]isoindole-1,3(2H,5H)-dione], the 50% degradation concentration (DC50) is below 10 nM.

For `O=C1CCC(N2Cc3cc4c(cc3C2=O)CN(C(=O)C2CCN(CC3CN(c5ccc([C@@H]6c7ccc(O)cc7CC[C@@H]6c6ccccc6)cc5)C3)CC2)C4)C(=O)N1` (stereo partly drawn) [E 296, 3-(6-(1-((1-(4-((1R,2S)-6-hydroxy-2-phenyl-1,2,3,4-tetrahydronaphthalen-1-yl)phenyl)azetidin-3-yl)methyl)piperidine-4-carbonyl)-1-oxo-3,5,6,7-tetrahydropyrrolo[3,4-f]isoindol-2(1H)-yl)piperidine-2,6-dione], the half-maximal degradation concentration (DC50) was above 100 nM.

Take `C[C@@H]1Cc2c([nH]c3ccccc23)[C@@H](c2c(F)cc(N3CCC(N4CCC(C(=O)N5Cc6cc7c(cc6C5)C(=O)N(C5CCC(=O)NC5=O)C7=O)CC4)C3)cc2F)N1CC(F)F` (stereo partly drawn) [E 110, 6-(1-(1-(4-((1R,3R)-2-(2,2-difluoroethyl)-3-methyl-2,3,4,9-tetrahydro-1H-pyrido[3,4-b]indol-1-yl)-3,5-difluorophenyl)pyrrolidin-3-yl)piperidine-4-carbonyl)-2-(2,6-dioxopiperidin-3-yl)-6,7-dihydropyrrolo[3,4-f]isoindole-1,3(2H,5H)-dione]: the DC50 was above 100 nM.

`O=C1CCC(N2C(=O)c3cc4c(cc3C2=O)CN(CC(=O)N2CCC3(CC2)CCN(c2ccc([C@@H]5c6ccc(O)cc6CC[C@@H]5c5ccc(F)cc5)cn2)CC3)C4)C(=O)N1` (mixture of isomers) [E 185, Rac-2-(2,6-dioxopiperidin-3-yl)-6-(2-(9-(5-((1S,2S)-2-(4-fluorophenyl)-6-hydroxy-1,2,3,4-tetrahydronaphthalen-1-yl)pyridin-2-yl)-3,9-diazaspiro[5.5]undecan-3-yl)-2-oxoethyl)-6,7-dihydropyrrolo[3,4-f]isoindole-1,3(2H,5H)-dione]: the DC50 is above 100 nM.

With `O=C1CCC(N2C(=O)c3cc4c(cc3C2=O)CN(CC(=O)N2CC3(CC(Oc5ccc([C@@H]6c7ccc(O)cc7CC[C@H]6c6ccccc6)cc5)C3)C2)C4)C(=O)N1` (stereo partly drawn) [E 221, 2-(2,6-dioxopiperidin-3-yl)-6-(2-(6-(4-((1R,2R)-6-hydroxy-2-phenyl-1,2,3,4-tetrahydronaphthalen-1-yl)phenoxy)-2-azaspiro[3.3]heptan-2-yl)-2-oxoethyl)-6,7-dihydropyrrolo[3,4-f]isoindole-1,3(2H,5H)-dione], the DC50 was above 100 nM.

In the case of `O=C1CCC(N2C(=O)c3cc4c(cc3C2=O)CN([C@H]2CC[C@H](NC3CN(c5ccc([C@@H]6c7ccc(O)cc7CC[C@@H]6c6ccccc6)cc5)C3)CC2)C4)C(=O)N1` (stereo partly drawn) [E 341, 2-(2,6-dioxopiperidin-3-yl)-6-((1R,4r)-4-((1-(4-((1R,2S)-6-hydroxy-2-phenyl-1,2,3,4-tetrahydronaphthalen-1-yl)phenyl)azetidin-3-yl)amino)cyclohexyl)-6,7-dihydropyrrolo[3,4-f]isoindole-1,3(2H,5H)-dione], the DC50 was above 100 nM.

Take `C[C@@H]1Cc2c([nH]c3ccccc23)[C@@H](c2c(F)cc(N3CCC(CN4CC(C(=O)N5Cc6cc7c(cc6C5)C(=O)N(C5CCC(=O)NC5=O)C7=O)C4)CC3)cc2F)N1CC(F)F` (stereo partly drawn) [E 239, 6-(1-((1-(4-((1R,3R)-2-(2,2-difluoroethyl)-3-methyl-2,3,4,9-tetrahydro-1H-pyrido[3,4-b]indol-1-yl)-3,5-difluorophenyl)piperidin-4-yl)methyl)azetidine-3-carbonyl)-2-(2,6-dioxopiperidin-3-yl)-6,7-dihydropyrrolo[3,4-f]isoindole-1,3(2H,5H)-dione]: the DC50 is above 100 nM.

Still in this assay, the particulars now being: compounds 16 hours, Table A does not say whether T47D or MCF7, read-out: Potency (DC50).
As for `C[C@@H]1Cc2c([nH]c3ccccc23)[C@@H](c2c(F)cc(C3=CCC4(CC3)CCN(C(=O)CN3Cc5cc6c(cc5C3)C(=O)N(C3CCC(=O)NC3=O)C6=O)CC4)cc2F)N1CC(F)F` (stereo partly drawn) [E 476, 6-(2-(9-(4-((1R,3R)-2-(2,2-difluoroethyl)-3-methyl-2,3,4,9-tetrahydro-1H-pyrido[3,4-b]indol-1-yl)-3,5-difluorophenyl)-3-azaspiro[5.5]undec-8-en-3-yl)-2-oxoethyl)-2-(2,6-dioxopiperidin-3-yl)-6,7-dihydropyrrolo[3,4-f]isoindole-1,3(2H,5H)-dione], the half-maximal degradation concentration (DC50) lay in the range of 10 to 100 nM.

`C[C@@H]1Cc2cc(O)ccc2[C@H](c2c(F)cc(C(=O)N3CC4(CCN(C(=O)CN5Cc6cc7c(cc6C5)C(=O)N(C5CCC(=O)NC5=O)C7=O)CC4)C3)cc2F)N1CC(F)F` (stereo partly drawn) [E 458, 6-(2-(2-(4-((1R,3R)-2-(2,2-difluoroethyl)-6-hydroxy-3-methyl-1,2,3,4-tetrahydroisoquinolin-1-yl)-3,5-difluorobenzoyl)-2,7-diazaspiro[3.5]nonan-7-yl)-2-oxoethyl)-2-(2,6-dioxopiperidin-3-yl)-6,7-dihydropyrrolo[3,4-f]isoindole-1,3(2H,5H)-dione]: the DC50 was above 100 nM.

Regarding `COc1cc([C@H]2CC[C@@H](C(=O)N3CCC(N4Cc5cc6c(cc5C4)C(=O)N(C4CCC(=O)NC4=O)C6=O)CC3)CC2)ncc1[C@@H]1c2[nH]c3ccccc3c2C[C@@H](C)N1CC(F)F` (stereo partly drawn) [E 396, 6-(1-((1S,4s)-4-(5-((1R,3R)-2-(2,2-difluoroethyl)-3-methyl-2,3,4,9-tetrahydro-1H-pyrido[3,4-b]indol-1-yl)-4-methoxypyridin-2-yl)cyclohexane-1-carbonyl)piperidin-4-yl)-2-(2,6-dioxopiperidin-3-yl)-6,7-dihydropyrrolo[3,4-f]isoindole-1,3(2H,5H)-dione], the DC50 was above 100 nM.

What is called DC50 is the concentration at which degradation of the target reaches its halfway point.
